# Source: patent US8063018B2, “Bivalent thrombin binding molecules comprising linkers” (National Research Council of Canada, priority 2004, dated 2011)
# Target: thrombin (Homo sapiens, UniProt P00734)
# Test: Fibrinogen clotting assay catalyzed by thrombin
# Format: biochemical
# Conditions: concentration needed to double the clotting time
# Experimental: Curves represent OD420 time course after the addition of 0.6 nM thrombin in the presence of (♦) 0 nM; (◯) 0.5 nM; (□) 1 nM; (Δ) 1.5 nM; (⋄) 2.5 nM; (●) 3.75 nM; (▪) 6.25 nM; and (▴) […] of the inhibitor with linker (GS)n and n=2 (SEQ. ID. NO. 50) (a); n=4 (SEQ. ID. NO. 51) (b); n=6 (SEQ. ID. NO. 52) (c); n=8 (SEQ. ID. NO. 53) (d); n=10 (SEQ. ID. NO. 54) (e); and in the presence of (♦) 0 nM; (◯) 1 nM; (□) 2 nM; (Δ) 4 nM; (⋄) 6 nM; (●) 10 nM; (▪) 15 nM; and (▴) 25 nM of the inhibitor with linker (GS)n and n=12 (SEQ. ID. NO. 55) (f); n=14 (SEQ. ID. NO. 56) (g), at 37° C. The onset clotting time was determined as an intersection of the baseline and the extrapolated linear portion of the OD change curve. […] Curves (i) represent OD420 time course in the presence of (A) 0 nM; (◯) 1 nM; (□) 2 nM; (Δ) 4 nM; (⋄) 6 nM; and (●) 15 nM of the inhibitor with linker […] (SEQ. ID. NO. 103), at 37° C. […] represent OD420 time course in the presence of (◯) 0 nM; (□) 2 nM; (Δ) 4 nM; (⋄) 6 nM; (●) 8 nM; (▪) 10 nM; (▴) 12 nM; and (♦) 15 nM; of the inhibitor with linker […] (SEQ. ID. NO. 58) at 25° C. Curves (k) represent OD420 time course in the presence of (◯) 0 nM; (□) 0.5 nM; (Δ) 1 nM; (⋄) 2 nM; (●) 3 nM; (▪) 4 nM; (▴) 5 nM; and (♦) 6 nM; of the inhibitor with linker […] (SEQ. ID. NO. 105) at 37° C. Curves (I) represent OD420 time course in the presence of (◯) 0 nM; (□) 0.25 nM; (Δ) 0.5 nM; (⋄) 1 nM; (●) 1.5 nM; (▪) 2 nM; and (▴) 2.5 nM; of the inhibitor with linker […] (SEQ. ID. NO. 104) at 37° C. Curves (m) represent OD420 time course in the presence of (◯) 0 nM; (□) 2 nM; (Δ) 4 nM; (⋄) 6 nM; (●) 8 nM; (▴) 10 nM; and (A) 12 nM; of the inhibitor with linker […] (SEQ. ID. NO. 106) at 37° C. Curves (n) represent OD420 time course in the presence of (◯) 0 nM; (□) 1 nM; (Δ) 2 nM; (⋄) 3 nM; (●) 4 nM; (▪) 5 nM; (▴) 6 nM; and (♦) 7 nM; of the inhibitor with linker […] (SEQ. ID. NO. 107) at 37° C. Curves (o) represent OD420 time course in the presence of (◯) 0 nM; (□) 4 nM; and (Δ) 8 nM; of the inhibitor with linker GQSHNR (SEQ. ID. NO. 108) at 37° C.
# Other experimental conditions were as used for the assays described in FIG. 2.
# Clotting assays were carried out by use of the protocols described previously (DiMaio and others, 1990, 21698-21703; Witting and others, 1992, 737-743). The assay employs bovine plasma fibrinogen dissolved at 0.1% in 50 mM Tris-Cl, 100 mM NaCl, 0.1% PEG-8000 at pH 7.6 (i.e. the clotting buffer). Each assay mixture contained a certain concentration of the peptide, and the reaction was started by the addition of human thrombin to a final concentration of 0.6-1.2 nM. Optical absorbance increase at 420 nm caused by fibrin clot formation was measured at 25° C. or 37° C. using the Spectramax plate reader. The onset clotting time was determined as an intersection of the baseline and the extrapolated linear portion of the OD change curve. The concentration of a peptide needed to double the clotting time was defined as IC50 (DiMaio and others, 1990, 21698-21703). Kinetic amidolytic curves were obtained in clotting buffer at 25° C. using eight inhibitor concentrations and three to five concentrations of the chromogenic substrate S-2238 (Chromogenix) (DiMaio and others, 1990, 21698-21703). Inhibition constants were extracted from Lineweaver-Burk equation by using weighted linear regression. Errors in Ki determination were estimated by using Monte-Carlo sampling with 1-3% variance of the experimental points.
SMILES,"IC50 (IC50, nM (37° C.), 37° C.) [nM]","IC50 (IC50, nM (25° C.), 25° C.) [nM]"
CC[C@H](C)[C@H](NC(=O)[C@H](CCC(=O)O)NC(=O)[C@H](CCC(=O)O)NC(=O)[C@H](Cc1ccccc1)NC(=O)[C@H](CC(=O)O)NC(=O)CNC(=O)[C@H](CO)NC(=O)CNC(=O)[C@H](CO)NC(=O)CNC(=O)[C@H]1CCCCN1C(=O)[C@H](CCCN=C(N)N)NS(=O)(=O)c1ccc(C(C)(C)C)cc1)C(=O)N1CCC[C@H]1C(=O)N[C@@H](CCC(=O)O)C(=O)N[C@@H](CCC(=O)O)C(=O)N[C@@H](Cc1ccc(O)cc1)C(=O)N[C@@H](CC(C)C)C(=O)N[C@@H](CCC(N)=O)C(=O)O [P3149],9.7 ± 0.7,–
CC[C@H](C)[C@H](NC(=O)[C@H](CCC(=O)O)NC(=O)[C@H](CCC(=O)O)NC(=O)[C@H](Cc1ccccc1)NC(=O)[C@H](CC(=O)O)NC(=O)CNC(=O)[C@H](CO)NC(=O)CNC(=O)[C@H](CO)NC(=O)CNC(=O)[C@H](CO)NC(=O)CNC(=O)[C@H](CO)NC(=O)CNC(=O)[C@H](CO)NC(=O)CNC(=O)[C@H](CO)NC(=O)CNC(=O)[C@H](CO)NC(=O)CNC(=O)[C@H](CO)NC(=O)CNC(=O)[C@H]1CCCCN1C(=O)[C@H](CCCN=C(N)N)NS(=O)(=O)c1ccc(C(C)(C)C)cc1)C(=O)N1CCC[C@H]1C(=O)N[C@@H](CCC(=O)O)C(=O)N[C@@H](CCC(=O)O)C(=O)N[C@@H](Cc1ccc(O)cc1)C(=O)N[C@@H](CC(C)C)C(=O)N[C@@H](CCC(N)=O)C(=O)O [P3152],0.7 ± 0.1,–
CC[C@H](C)[C@H](NC(=O)[C@H](CCC(=O)O)NC(=O)[C@H](CCC(=O)O)NC(=O)[C@H](Cc1ccccc1)NC(=O)[C@H](CC(=O)O)NC(=O)CNC(=O)[C@H](CO)NC(=O)[C@@H](NC(=O)[C@H](CCCCN)NC(=O)[C@H](CCC(=O)O)NC(=O)[C@H](Cc1ccc(O)cc1)NC(=O)[C@H](Cc1c[nH]cn1)NC(=O)[C@@H]1CCCN1C(=O)[C@H](CO)NC(=O)CNC(=O)[C@H](CO)NC(=O)[C@@H](NC(=O)[C@H](CCCCN)NC(=O)[C@H](CCC(=O)O)NC(=O)[C@H](Cc1ccc(O)cc1)NC(=O)[C@H](Cc1c[nH]cn1)NC(=O)[C@@H]1CCCN1C(=O)[C@H](CO)NC(=O)CNC(=O)[C@H]1CCCCN1C(=O)[C@H](CCCNC(=N)N)NS(=O)(=O)c1ccc(C(C)(C)C)cc1)C(C)C)C(C)C)C(=O)N1CCC[C@H]1C(=O)N[C@@H](CCC(=O)O)C(=O)N[C@@H](CCC(=O)O)C(=O)N[C@@H](Cc1ccc(O)cc1)C(=O)N[C@@H](CC(C)C)C(=O)N[C@@H](CCC(N)=O)C(=O)O [P3161],–,0.7
CC[C@H](C)[C@H](NC(=O)[C@H](CCC(=O)O)NC(=O)[C@H](CCC(=O)O)NC(=O)[C@H](Cc1ccccc1)NC(=O)[C@H](CC(=O)O)NC(=O)CNC(=O)[C@H](CO)NC(=O)[C@@H](NC(=O)[C@H](CCCCN)NC(=O)[C@H](CCC(=O)O)NC(=O)[C@H](Cc1ccc(OP(=O)(O)O)cc1)NC(=O)[C@H](Cc1c[nH]cn1)NC(=O)[C@@H]1CCCN1C(=O)[C@H](CO)NC(=O)CNC(=O)[C@H](CO)NC(=O)[C@@H](NC(=O)[C@H](CCCCN)NC(=O)[C@H](CCC(=O)O)NC(=O)[C@H](Cc1ccc(OP(=O)(O)O)cc1)NC(=O)[C@H](Cc1c[nH]cn1)NC(=O)[C@@H]1CCCN1C(=O)[C@H](CO)NC(=O)CNC(=O)[C@H]1CCCCN1C(=O)[C@H](CCCNC(=N)N)NS(=O)(=O)c1ccc(C(C)(C)C)cc1)C(C)C)C(C)C)C(=O)N1CCC[C@H]1C(=O)N[C@@H](CCC(=O)O)C(=O)N[C@@H](CCC(=O)O)C(=O)N[C@@H](Cc1ccc(O)cc1)C(=O)N[C@@H](CC(C)C)C(=O)N[C@@H](CCC(N)=O)C(=O)O [P3162],–,19 ± 1
CC[C@H](C)[C@H](NC(=O)[C@H](CCC(=O)O)NC(=O)[C@H](CCC(=O)O)NC(=O)[C@H](Cc1ccccc1)NC(=O)[C@H](CC(=O)O)NC(=O)CNC(=O)[C@H](CO)NC(=O)CNC(=O)[C@H](CO)NC(=O)CNC(=O)[C@H](CO)NC(=O)CNC(=O)[C@H](CO)NC(=O)CNC(=O)[C@H](CO)NC(=O)CNC(=O)[C@H](CO)NC(=O)CNC(=O)[C@H](CO)NC(=O)CNC(=O)[C@H](CO)NC(=O)CNC(=O)[C@@H](N)CSSC[C@H](NC(=O)CNC(=O)[C@H]1CCCCN1C(=O)[C@H](CCCNC(=N)N)NS(=O)(=O)c1ccc(C(C)(C)C)cc1)C(=O)O)C(=O)N1CCC[C@H]1C(=O)N[C@@H](CCC(=O)O)C(=O)N[C@@H](CCC(=O)O)C(=O)N[C@@H](Cc1ccc(O)cc1)C(=O)N[C@@H](CC(C)C)C(=O)N[C@@H](CCC(N)=O)C(=O)O [P3172-P3165],1.1 ± 0.2,–
CC[C@H](C)[C@H](NC(=O)[C@H](CCC(=O)O)NC(=O)[C@H](CCC(=O)O)NC(=O)[C@H](Cc1ccccc1)NC(=O)[C@H](CC(=O)O)NC(=O)CNC(=O)[C@H](CO)NC(=O)CNC(=O)[C@H](CO)NC(=O)CNC(=O)[C@H](CO)NC(=O)CNC(=O)[C@H](CO)NC(=O)CNC(=O)[C@H](CO)NC(=O)CNC(=O)[C@H](CCCCN)NC(=O)CNC(=O)[C@H](CO)NC(=O)CNC(=O)[C@H](CO)NC(=O)CNC(=O)[C@H](CO)NC(=O)CNC(=O)[C@H](CO)NC(=O)CNC(=O)[C@H]1CCCCN1C(=O)[C@H](CCCNC(=N)N)NS(=O)(=O)c1ccc(C(C)(C)C)cc1)C(=O)N1CCC[C@H]1C(=O)N[C@@H](CCC(=O)O)C(=O)N[C@@H](CCC(=O)O)C(=O)N[C@@H](Cc1ccc(O)cc1)C(=O)N[C@@H](CC(C)C)C(=O)N[C@@H](CCC(N)=O)C(=O)O [P3174],–,1.6 ± 0.9
CC[C@H](C)[C@H](NC(=O)[C@H](CCC(=O)O)NC(=O)[C@H](CCC(=O)O)NC(=O)[C@H](Cc1ccccc1)NC(=O)[C@H](CC(=O)O)NC(=O)CNC(=O)[C@H](CC(N)=O)NC(=O)[C@H](CO)NC(=O)[C@@H](NC(=O)[C@H](CCCCN)NC(=O)[C@H](CC(=O)O)NC(=O)[C@@H](NC(=O)[C@@H]1CCCN1C(=O)[C@@H](NC(=O)[C@H](CC(N)=O)NC(=O)[C@H](CC(C)C)NC(=O)[C@H](CC(=O)O)NC(=O)[C@H](CC(C)C)NC(=O)[C@@H](NC(=O)CNC(=O)[C@H]1CCCCN1C(=O)[C@H](CCCNC(=N)N)NS(=O)(=O)c1ccc(C(C)(C)C)cc1)[C@@H](C)O)[C@@H](C)O)C(C)C)[C@@H](C)O)C(=O)N1CCC[C@H]1C(=O)N[C@@H](CCC(=O)O)C(=O)N[C@@H](CCC(=O)O)C(=O)N[C@@H](Cc1ccc(O)cc1)C(=O)N[C@@H](CC(C)C)C(=O)N[C@@H](CCC(N)=O)C(=O)O [P3181],1.9 ± 0.2,–
CC[C@H](C)[C@H](NC(=O)[C@H](CCC(=O)O)NC(=O)[C@H](CCC(=O)O)NC(=O)[C@H](Cc1ccccc1)NC(=O)[C@H](CC(=O)O)NC(=O)CNC(=O)[C@H](CC(=O)O)NC(=O)[C@H](CC(N)=O)NC(=O)[C@H](Cc1c[nH]cn1)NC(=O)[C@H](CC(C)C)NC(=O)[C@H](CCC(N)=O)NC(=O)[C@@H]1CCCN1C(=O)[C@H](CCCNC(=N)N)NC(=O)[C@@H]1CCCN1C(=O)[C@@H](NC(=O)[C@@H](NC(=O)[C@H](CO)NC(=O)CNC(=O)[C@H]1CCCCN1C(=O)[C@H](CCCNC(=N)N)NS(=O)(=O)c1ccc(C(C)(C)C)cc1)C(C)C)C(C)C)C(=O)N1CCC[C@H]1C(=O)N[C@@H](CCC(=O)O)C(=O)N[C@@H](CCC(=O)O)C(=O)N[C@@H](Cc1ccc(O)cc1)C(=O)N[C@@H](CC(C)C)C(=O)N[C@@H](CCC(N)=O)C(=O)O [P3209],1.1,–
